Test results reported in PMC10388305, “Synthesis and Evaluation of a Monomethyl Auristatin E—Integrin αvβ6 Binding Peptide–Drug Conjugate for Tumor Targeted Drug Delivery” (Journal of Medicinal Chemistry, 2023).
Square brackets hold non-standard residues; d marks the D form. Peptide text beside a SMILES is read from it. * marks the point of attachment. Dolaproine = CO[C@@H]([C@@H]1CCCN1)[C@@H](C)C(=O)O; Dil = CC[C@H](C)[C@H](NC)[C@@H](CC(=O)O)OC; X1 = C[C@@H](N*)[C@@H](O)c1ccccc1; NMeV = CN[C@H](C(=O)O)C(C)C

Tests used:
[1] = cited from earlier work
Description: Tumor xenografts were established by subcutaneous injection of either DX3puroβ6 or DX3puro cells (3 × 10^6 cells in 100 μL serum-free DMEM/animal) into the flank. The tumors were allowed to grow for 19 days before the start of treatment (day 0). Mice were treated with either (1) saline, (2) peptide ([^natCu]2), 6 mg/kg, 1.12 μmol/kg), (3) non-targeted drug (MMAE, 0.3 mg/kg, 0.42 μmol/kg), or (4) PDC ([^natCu]PDC-1, 6 mg/kg, 0.88 μmol/kg). Dosing of MMAE was 0.3 mg/kg as per maximum dose with no physiological response.[25] The [^natCu]PDC-1 treatment groups consisted of n = 10/tumor model, whil ...

DX3puro (−) cells [2] = assay: WST-1 cell viability assay, DX3puro; assay type: cell-based; conditions: 48 h treatment + 24 h media, up to 5 nM, mean ± SD
Description: (§1) Peptides NH2-2 and [^natCu]2 were not toxic to any cells (Figure 3, gray and black, respectively).
(§2) Cell viability was measured after treatment with either NH2-2, [^natCu]2, MMAE (free, non-targeted drug), NH2-PDC-1, or [^natCu]PDC-1 in DX3puroβ6 (+) and DX3puro (−) cells at variable concentrations up to 5 nM, and in BxPC-3 (+) and MIA PaCa-2 (−) cells at variable concentrations up to 250 nM, or with MMAE at concentrations up to 10 nM. Cells were seeded in a 96 well plate at a density of 6000 cells/well for DX3puroβ6 and DX3puro, and at a density of 10,000 cells/well for BxPC-3 and MIA PaCa-2. DMEM media was used for all cells except for BxPC-3 (RPMI 1640 media). Cells (n = 6–8 wells/cell type/compound) were treated with different concentrations of NH2-2, [^natCu]2, MMAE, NH2-PDC-1, or [^natCu]PDC-1 dissolved in the respective media, as well as their respective media (no treatment) for 48 h (37 °C, 5% CO2), after which the media was removed; cells were washed twice with media (200 μL) and re-incubated in media (37 °C, 5% CO2) for 24 h. The media was then removed and the WST-1 reagent was added to each well, and the cells were incubated for 2 h at 37 °C. The 96 well plates were read at 450 nm by a Multiscan Ascent microplate reader. The percent cell viability was normalized to untreated cells (set as 100% viability) for each cell line.

BxPC-3 (+) cells [3] = assay: Caspase-3/7 activity assay (ApoTox-Glo), BxPC-3; assay type: cell-based; conditions: 250 nM (MMAE 10 nM, staurosporine 100 nM), 24, 48, 72 h
Description: (§3) Caspase-3/7 activity was analyzed using an ApoTox-Glo Triplex Assay kit. Cells were seeded in a 96 well plate at the same density and using the same respective media as described for the WST-1 assay and incubated overnight (37 °C, 5% CO2). DX3puroβ6 and DX3puro cells were treated with 1 nM of MMAE (free, non-targeted drug) or 0.625 nM of the other compounds: NH2-2, [^natCu]2, NH2-PDC-1, or [^natCu]PDC-1. BxPC-3 and MIA PaCa-2 cells were treated with 10 nM of MMAE or 250 nM of the other compounds: NH2-2, [^natCu]2, NH2-PDC-1, or [^natCu]PDC-1. All cells were treated with 100 nM of staurosporine as a positive control.[24] Untreated cells (media) were used as a measure of endogenous caspase-3/7 activity (normalized to 1). Cells were treated (n = 4/cell line/compound/time) for 24, 48, or 72 h (37 °C, 5% CO2) prior to washing. After treatment, the media was removed, cells were washed, and Caspase-Glo 3/7 reagent was added, and incubated for 1 h at room temperature. Caspase-3/7 activity was analyzed by measuring luminescence with a Fluoroskan FL microplate reader according to the manufacturer’s protocol.

MIA PaCa-2 (−) cells [4] = assay: Caspase-3/7 activity assay (ApoTox-Glo), MIA PaCa-2; assay type: cell-based; conditions: 250 nM (MMAE 10 nM, staurosporine 100 nM), 24, 48, 72 h
Description: as §3

MIA PaCa-2 (−) cells [5] = assay: WST-1 cell viability assay, MIA PaCa-2; assay type: cell-based; conditions: MIA PaCa-2 (−); 48 h treatment + 24 h media; up to 250 nM (MMAE up to 10 nM); mean ± SD
Description: as §1, §2

[6] = tested on: DX3puroβ6 (+) and DX3puro (−) tumors; assay: Therapy study, control groups (half DX3puroβ6 (+), half DX3puro (−) tumors); assay type: in vivo, mice
Description: Mice treated with [^natCu]PDC-1 had slower tumor growth compared to the groups receiving saline, non-drug bearing peptide [^natCu]2, or free, non-targeted MMAE (Figure 7). […] All mice in the groups treated with saline, non-drug bearing peptide [^natCu]2, or free, non-targeted MMAE had met an end point criterion (≥2 cm in any direction and/or tumor ulceration) by 56 days, 70 days, and 64 days from start of treatment, respectively, with all these groups having the same median survival of 37 days (Figure 7B).
Figure 7 (A) Average tumor volume over time. (B) Kaplan–Meier survival plot.
Tumor xenografts were established by subcutaneous injection of either DX3puroβ6 or DX3puro cells (3 × 10^6 cells in 100 μL serum-free DMEM/animal) into the flank. The tumors were allowed to grow for 19 days before the start of treatment (day 0). […] Tumor volumes and body weights (to assess possible systemic toxicity) were measured starting on day 0, and once a week thereafter until the end of the study. Tumor volume (V) was determined according to the equation V = (π/6) × L × W × H, where L is the longest axis, W is the axis perpendicular to L, and H is perpendicular to the plane of L and W. End point determination criteria were: any axis >2 cm, active ulceration, or compromised health of the mouse (>20% loss of body weight from the start of the study). […] Survival curves were determined by Kaplan–Meier method.

DX3puroβ6 (+) cells [7] = assay: Caspase-3/7 activity assay (ApoTox-Glo), DX3puroβ6; assay type: cell-based; conditions: DX3puroβ6 (+); 0.625 nM (MMAE 1 nM, staurosporine 100 nM); 24, 48, 72 h
Description: as §3

BxPC-3 (+) cells [8] = assay: WST-1 cell viability assay, BxPC-3; assay type: cell-based; conditions: 48 h treatment + 24 h media, mean ± SD
Description: as §1, §2

DX3puro (−) cells [9] = assay: Caspase-3/7 activity assay (ApoTox-Glo), DX3puro; assay type: cell-based; conditions: 0.625 nM (MMAE 1 nM, staurosporine 100 nM), 24, 48, 72 h
Description: as §3

DX3puroβ6 (+) cells [10] = assay: WST-1 cell viability assay, DX3puroβ6; assay type: cell-based; conditions: DX3puroβ6 (+); 48 h treatment + 24 h media; mean ± SD
Description: as §1, §2

CC[C@H](C)[C@@H]([C@@H](CC(=O)N1CCC[C@H]1[C@H](OC)[C@@H](C)C(=O)N[C@H](C)[C@@H](O)c1ccccc1)OC)N(C)C(=O)[C@@H](NC(=O)[C@@H](NC)C(C)C)C(C)C [MMAE, monomethyl auristatin E] (H-[NMeV]V[Dil][Dolaproine]-X1)
Maximum dose with no physiological response [1]: 0.3 mg/kg | EC50 (DX3puro (−) cells [2]): 140 ± 30 pM | Caspase-3/7 activity (in words) (BxPC-3 (+) cells [3]): increased caspase-3/7 activity | Caspase-3/7 activity (in words) (MIA PaCa-2 (−) cells [4]): increased caspase-3/7 activity | EC50 (MIA PaCa-2 (−) cells [5]): 160 ± 10 pM | Median survival ([6]; [natCu]2 6 mg/kg, MMAE 0.3 mg/kg i.v. on days 0, 3, 6, 9, n = 8/group): 37 days | Time by which all mice had met an end point criterion ([6]; from start of treatment): ≤ 64 days | Caspase-3/7 activity (in words) (DX3puroβ6 (+) cells [7]): increased caspase-3/7 activity | EC50 (BxPC-3 (+) cells [8]): 500 ± 30 pM | Caspase-3/7 activity (in words) (DX3puro (−) cells [9]): increased caspase-3/7 activity | EC50 (DX3puroβ6 (+) cells [10]): 150 ± 20 pM
